Source: patent publication US20080085912A1, “Isoxazole derivatives and methods of treating diseases” (Unitech Pharmaceuticals, Inc., priority 2006, published 2008)
Values joined by “and” are separate entries in the source; they are usually repeats but may differ in a detail not shown here. Equal entries are not always repeated.

Key:
[1] = test system: Carrageenan-induced hind paw edema; test: Carrageenan-induced hind paw edema test on rats; format: in vivo, SD rats; settings: for Anti-inflammatory activity (in words): carrageenan-induced edema animal study; for Avg E % of the injected paw: group average of 5 rats; for Avg E % of the injected paw / Edema % of the injected paw: 20 mg/kg i.p. pretreatment; for Volume (ml) of the injected paw / Edema % of the injected paw: individual rats (Rat 1-5); for Volume (ml) of the injected paw: 20 mg/kg i.p. 1 h before carrageenan, 20 mg/kg
Experimental: Male/female SD rats (180-215 g) were assigned to two groups: (1) control group and (2) test group, with 5 rats in each group. UTR-1 was first dissolved in DMSO (20 mg in 0.5 ml DMSO) and then diluted with 1% CMC (carboxymethylcellulose) to make 5 ml sample preparation. One hour before the carrageenan challenge (pretreatment), 1 ml of the sample preparation was injected i.p. into a rat in a test group. This is equivalent to 20 mg/kg (1 ml×4 mg/ml×1000 g/200 g=20 mg/kg based on the average weight per rat of 200 g). The vehicle without drug was injected in the same way into animals in the control group. In order to induce inflammation, 50 μl of a 1% carrageenan solution in normal saline was injected into the right hind paw subplantar tissue. The development of paw edema was measured by a plethysmometer (Basile 7140 plethysmometer, Ugo, Varese, Italy). After the carrageenan challenge, each paw volume (ml) was measured hourly. The Edema (E %) is calculated as follows: [formula] V0=Volume (mL) of the rear right footpad before the injection of Carrageenan Vt=Volume (mL) of the rear right footpad at “t” time after the injection of Carrageenan

TNF-α = TNF-α released from UVB-irradiated keratinocytes in vitro (ELISA); format: cell-based, Human
Experimental: 1. Vehicle stock: 50:50 v/v EtOH:PEG 600
2. UTR-1 stock: 3.5 mg/ml UTR-1 in a vehicle of 50:50 v/v EtOH:PEG 600
(§1) Human epidermal keratinocytes were seeded into 6-well plates and grown at 37±2° C. and 5±1% CO2 using serum free Epilife media supplemented as recommended by the manufacturer. Upon reaching confluency, the media were removed and the cells were treated overnight with Epilife media containing 1% v/v each of the stock solutions above (Vehicle stock and UTR-1 stock). Final concentration was 35 μg/ml for UTR-1. Two wells in the 6-well plate were prepared for each treatment. After applying the test material the cells were incubated for 24 hours at 37±2° C. and 5±1% CO2.
(§2) At the end of the incubation period the culture media was removed via aspiration and replaced with phosphate buffered saline and the cells were then irradiated with ˜30 mJ/cm^2 of UVB radiation. After the irradiation, the phosphate buffered saline was replaced by fresh culture media and the cells were incubated overnight at 37±2° C. and 5±1% CO2. After the incubation the cell culture media was collected to measure TNF-α release by a commercial ELISA Assay kit. The cells were washed once with PBS and then a trypsin/EDTA solution was added to release the cells, followed by the addition of trypsin neutralizing solution. The cells were collected and pooled into 15 ml centrifuge tubes based on their treatment and pelleted by centrifuging at 1000 RPM at 4±2° C. After removing the supernatant, the pelleted cells were lysed by adding 500 μl of guanidinium thiocyanate lysis solution to each tube and then repeatedly drawing and releasing the solution into the pipette until the cell pellet is dissolved. Total RNA was then isolated by an RNAqueous kit (Ambion). After purifying the RNA, mRNA is isolated and the converted into anti-sense RNA (aRNA). The aRNA is then labeled with a florescent probe. In this case, Cy3 (green florescent signal) is used to label the sRNA from untreated sample, while Cy5 (red fluorescent) is used to label the aRNA of treated sample. Once the aRNA is labeled and any unincorporated dye is removed from the sample, the labeled aRNA is mixed with a hybridized solution and applied to the microarray. The microarray is then hybridized overnight at 60-65° C. After hybridization, the microarray is washed to remove any unbound aRNA probe and then scanned with a microarray scanner. Criteria for evaluating changes in gene expression may vary. In general, (1) the fluorescence intensity of the gene marker should be greater than the background intensity, and (2) the ratio of Cy5/Cy3 (treated/untreated) fluorescence intensity needs to be greater than 1.3 or less than 0.66 to indicate a change of ±30% in gene expression.

EPHB4 = test: Gene array analysis, keratinocytes: EPHB4; format: cell-based, Human; settings: 35 μg/ml; UVB
Experimental: as §1
(§3) At the end of the incubation period the culture media was removed via aspiration and replaced with phosphate buffered saline and the cells were then irradiated with ˜30 mJ/cm^2 of UVB radiation. After the irradiation, the phosphate buffered saline was replaced by fresh culture media and the cells were incubated overnight at 37±2° C. and 5±1% CO2. After the incubation the cell culture media was collected to measure TNF-α release by a commercial ELISA Assay kit. […] In general, (1) the fluorescence intensity of the gene marker should be greater than the background intensity, and (2) the ratio of Cy5/Cy3 (treated/untreated) fluorescence intensity needs to be greater than 1.3 or less than 0.66 to indicate a change of ±30% in gene expression.

EFA6R = test: Gene array analysis, keratinocytes: EFA6R; format: cell-based, Human; settings: 35 μg/ml; UVB
Experimental: as §1, §3

MAP3K2 = test: Gene array analysis, keratinocytes: MAP3K2; format: cell-based, Human
Experimental: as §1
as §2, with “In this case, Cy3 (green florescent signal) is used to label the sRNA from untreated sample, while Cy5 (red fluorescent) is used to label the aRNA of treated sample. Once the aRNA is labeled and any unincorporated dye is removed from the sample, the labeled aRNA is mixed with a hybridized solution and applied to the microarray. The microarray is then hybridized overnight at 60-65° C. After hybridization, the microarray is washed to remove any unbound aRNA probe and then scanned with a microarray scanner. Criteria for evaluating changes in gene expression may vary.” left out

ITGB6 = test: Gene array analysis, keratinocytes: ITGB6; format: cell-based, Human; settings: 35 μg/ml; UVB
Experimental: as §1, §3

TUCAN = test: Gene array analysis, keratinocytes: TUCAN; format: cell-based, Human; settings: 35 μg/ml; UVB
Experimental: as §1, §3

DEFA6 = test: Gene array analysis, keratinocytes: DEFA6; format: cell-based, Human; settings: 35 μg/ml; UVB
Experimental: as §1, §3

APOBEC1 = test: Gene array analysis, keratinocytes: APOBEC1; format: cell-based, Human; settings: 35 μg/ml; UVB
Experimental: as §1, §3

PTGER1 = test: Gene array analysis, keratinocytes: PTGER1; format: cell-based, Human; settings: 35 μg/ml; UVB
Experimental: as §1, §3

JAK3 = test: Gene array analysis, keratinocytes: JAK3; format: cell-based, Human; settings: for Ratio of treated/control / Suppression %: 35 μg/ml, UVB
Experimental: as §1, §2

[2] = UVB ~30 mJ/cm^2, 35 μg/ml, 24 h pretreatment
[3] = array entry MAP3K2 (homo sapien), 35 μg/ml, UVB

Cc1cc(C(=O)O)no1 [UTR-1, 5-methylisoxazole-3-carboxylic acid]
Anti-inflammatory activity (in words) [1]: surpassingly effective in anti-inflammation
Anti-inflammatory activity (in words) ([1]; listed as 5-methylisoxazole-3-carboxylic aicd): surprisingly and unexpectedly effective in anti-inflammation
Avg E % of the injected paw ([1]; Time 0 hr): 0.00%
Avg E % of the injected paw ([1]; Time 1 hr): 11.90%
Avg E % of the injected paw ([1]; Time 2 hr): 22.70%
Avg E % of the injected paw ([1]; Time 3 hr): 37.85%
Avg E % of the injected paw ([1]; Time 4 hr): 49.89%
Volume (ml) of the injected paw ([1]; Time 0 hr): 1.46 ml and 1.48 ml and 1.35 ml and 1.33 ml (2×)
Volume (ml) of the injected paw ([1]; Time 1 hr): 1.77 ml and 1.47 ml and 1.50 ml (2×) and 1.53 ml
Volume (ml) of the injected paw ([1]; Time 2 hr): 1.92 mL and 1.53 mL and 1.65 mL and 1.66 mL and 1.75 mL
Volume (ml) of the injected paw ([1]; Time 3 hr): 2.36 mL and 1.55 mL and 1.76 mL and 2.10 mL and 1.79 mL
Volume (ml) of the injected paw ([1]; Time 4 hr): 2.49 mL and 1.62 mL and 1.78 mL and 2.35 mL and 2.14 mL
Edema % of the injected paw ([1]; Time 0 hr): 0.00%
Edema % of the injected paw ([1]; Time 1 hr): 21.23% and −0.68% and 11.11% and 15.04% and 12.78%
Edema % of the injected paw ([1]; Time 2 hr): 31.51% and 3.38% and 22.22% and 24.81% and 31.58%
Edema % of the injected paw ([1]; Time 3 hr): 61.64% and 4.73% and 30.37% and 57.89% and 34.59%
Edema % of the injected paw ([1]; Time 4 hr): 70.55% and 9.46% and 31.85% and 76.69% and 60.90%
Reduction of TNF-α secreted from stimulated keratinocyte cells (in words) (TNF-α): very effective in reducing TNF-α
TNFα (pg/ml), Sample2 (TNF-α; [2]): 119 pg/mL
TNFα (pg/ml), sample1 (TNF-α; [2]): 120 pg/mL
TNFα Avg. (TNF-α; average of n=2 wells, UVB ~30 mJ/cm^2, 35 μg/ml): 120 pg/mL
Ratio of treated/control (EPHB4): 0.433
Suppression % (EPHB4): 57%
Ratio of treated/control (EFA6R): 0.375
Suppression % (EFA6R): 63%
Ratio of treated/control (MAP3K2; [3]): 0.592
Suppression % (MAP3K2; [3]): 40%
Gene suppression (in words) (MAP3K2; gene array analysis): significantly suppressed
Ratio of treated/control (ITGB6): 0.3
Suppression % (ITGB6): 70%
Ratio of treated/control (TUCAN): 0.333
Suppression % (TUCAN): 67%
Ratio of treated/control (DEFA6): 0.38
Suppression % (DEFA6): 62%
Ratio of treated/control (APOBEC1): 0.333
Suppression % (APOBEC1): 67%
Ratio of treated/control (PTGER1): 0.286
Suppression % (PTGER1): 71%
Ratio of treated/control (JAK3; array entry JAK3 (homo sapien)): 0.386
Suppression % (JAK3; array entry JAK3 (homo sapien)): 61%
Ratio of treated/control (JAK3; array entry JAK3): 0.417
Suppression % (JAK3; array entry JAK3): 58%
Gene suppression (in words) (JAK3; gene array analysis): significantly suppressed
